US8906895B2, “Optically active dibenzylamine derivative, and method for preparing thereof” (Kowa Company, Ltd., priority 2010, dated 2014)
Marks after values point to notes of the source that are not given here.

Tests used:
PCSK9 protein = PCSK9 protein amount in HepG2 cells by Western blotting; assay type: cell-based, human; conditions: 48 hours; for PCSK9 protein amount (Relative value based on value of control taken as 1): 10 μM in culture medium, corrected by β-actin; for PCSK9 protein amount-reducing action in comparison with the control (in words): 10 μM
Method: (§1) Influence of a test compound on amount of PCSK9 protein and amount of LDL receptor was studied by adding the test compound to human hepatoma cell strain, HepG2 cells, and measuring amount of PCSK9 protein and amount of LDL receptor (LDLR) by Western blotting after culture for 48 hours.
(§2) Specifically, the HepG2 cells were inoculated on a 6-well plate at a density of 5×10^5 cells/well and cultured overnight, and a test compound dissolved in dimethyl sulfoxide (DMSO), or only DMSO was added to the culture medium in a 1/1000-fold amount. The cells were cultured at 37° C. for 48 hours in a CO2 incubator, the culture was added with 100 μL of the RIPA buffer (50 mM Tris-HCl, pH 7.8, 150 mM NaCl, 1% NP-40, 0.5% sodium deoxycholate, 0.1% SDS, proteinase inhibitor) to disrupt the cells, and proteins were extracted. The extracted proteins were centrifuged at 10000×g, the supernatant was collected, and added with an SDS sample buffer (60 mM Tris-HCl, pH 6.8, 2% SDS, 10% glycerol, 3% mercaptoethanol), and the mixture was subjected to separation by SDS-PAGE (SDS-polyacrylamide gel electrophoresis) using 8% acrylamide gel. After completion of the separation, the proteins were fixed on a nitrocellulose membrane by using iBlot Gel Transfer System (Invitrogen), and blocked by using Block Ace (DS Pharma Biomedical, Catalog No. UK-B 80).
(§3) Detection of the PCSK9 protein, LDLR, and β-actin protein, and measurement of the amounts thereof were performed by labeling the proteins on the membrane using Anti-PCSK9 (Cayman, Catalog No. 1000718), Anti-LDLR (BioVision, Catalog No. 3839-100), and Anti-β-Actin (Sigma, Catalog No. A5316), respectively, as the primary antibody, and Anti-Rabbit IgG-HRP (Sigma, Catalog No. A0545) or Anti-Mouse IgG-HRP (Sigma, Catalog No. A4416) as the secondary antibody, reacting a chemiluminescence reagent (substrate of HRP) with the secondary antibody on the membrane, and then measuring signal intensity using Lumino Image Analyzer LAS-3000 (Fuji Photo Film). The resulting signal intensity wag numprirally evaluated by using image analysis software, Science Lab 2002 Multi Gauge (Fuji Photo Film).
(§4) The resulting measured values of the PCSK9 protein amount and the LDL receptor amount were corrected between those obtained for the sample added with a test compound and the control sample (sample added with only DMSO) using the β-actin protein amounts as index. The corrected PCSK9 protein amount and LDL receptor amount of the test compound addition sample were represented by relative values based on the PCSK9 protein amount and LDL receptor amount of the control sample, respectively, which were taken as 1.

LDL receptor (LDLR) = experiment: LDL receptor amount in HepG2 cells by Western blotting; assay type: cell-based, human; conditions: 48 hours; for LDL receptor amount (Relative value based on value of control taken as 1): 10 μM in culture medium, corrected by β-actin; for LDL receptor amount-increasing action in comparison with the control (in words): 10 μM
Method: as §1, §2, §3, §4

[1] = tested on: human HMG-CoA reductase mRNA; experiment: HMG-CoA reductase mRNA expression in HepG2 cells by quantitative real-time PCR; assay type: cell-based; conditions: 10 μM, 8 hours; for HMG-CoA reductase mRNA expression amount (Relative value based on average value of control taken as 1): average ± standard error, 3 samples
Method: A test compound was added to the HepG2 cells and the cells were cultured for 8 hours, and then HMG-CoA reductase mRNA expression amount was measured by quantitative real-time PCR.
Specifically, the HepG2 cells were inoculated on a 24-well plate at a density of 2×10^5 cells/well and cultured overnight, and then a test compound dissolved in dimethyl sulfoxide (DMSO), or only DMSO was added to the culture medium in a 1/1000-fold amount. The cells were cultured at 37° C. for 8 hours in a CO2 incubator, and then added with 500 μL of ISOGEN (NIPPON GENE, Catalog No. 31-02501), and the total RNA was extracted. cDNA was synthesized from the extracted total RNA by using High Capacity cDNA Reverse Transcription Kit (Applied Biosystems, Catalog No. 4368813). Expression amount of human HMG-CoA reductase mRNA was measured by quantitative real-time PCR using a set of the following primers: 5′-[…]-3′ (SEQ ID No:1) and 5′-[…]-3′ (SEQ ID No:2) specific to human HMG-CoA reductase, and Fast SYBR Green Master Mix (Applied Biosystems, Catalog No. 4385614). As the measurement apparatus, 7900HT Fast Realtime PCR System was used.
The resulting measured values of the HMG-CoA reductase mRNA expression amount were corrected between those obtained for test compound addition samples (3 samples for each compound) and control samples (sample added with only DMSO, 3 samples) using the β-actin mRNA expression amounts as index. The corrected HMG-CoA reductase mRNA expression amount of the test compound addition sample was represented with a relative value (average±standard error) based on average of the HMG-CoA reductase mRNA expression amounts of the control samples, which was taken as 1.

human PCSK9 mRNA = experiment: PCSK9 mRNA expression in HepG2 cells by quantitative real-time PCR; assay type: cell-based; conditions: 10 μM, 24 hours
Method: Specifically, the HepG2 cells were inoculated on a 24-well plate at a density of 2×10^5 cells/well and cultured overnight, and then a test compound dissolved in dimethyl sulfoxide (DMSO), or only DMSO was added to the culture medium in a 1/1000-fold amount. The cells were cultured at 37° C. for 24 hours in a CO2 incubator, and then added with 500 μl of ISOGEN (NIPPON GENE, Catalog No. 31-02501), and the total RNA was extracted. cDNA was synthesized from the extracted total RNA by using High Capacity cDNA Reverse Transcription Kit (Applied Biosystems, Catalog No. 4368813). Expression amount of human PCSK9 mRNA was measured by quantitative real-time PCR using primers specific to human PCSK9 (Kourimate S. et al., J. Biol. Chem., Vol. 283, p9666), and Fast SYBR Green Master Mix (Applied Biosystems, Catalog No. 4385614). As the measurement apparatus, 7900HT Fast Realtime PCR System was used.
The resulting measured values of the PCSK9 mRNA expression amount were corrected between those obtained for test compound addition samples (3 samples) and control samples (sample added with only DMSO, 3 samples) using the β-actin mRNA expression amounts as index. […]

[2] = tested on: LDL cholesterol in the plasma; experiment: Blood LDL cholesterol-reducing action in normal hamsters; assay type: in vivo, male Syrian hamsters; conditions: for LDL cholesterol-reducing rate: based on control group; for Average LDL cholesterol amount ± standard deviation: plasma 4 hours after final administration, control 50 ± 3.0
Description: (S)-trans-{4-[({2-[({1-[3,5-Bis(trifluoromethyl)phenyl]ethyl}{5-[2-(methylsulfonyl)ethoxy]pyrimidin-2-yl}amino)methyl]-4-(trifluoromethyl)phenyl}(ethyl)amino)methyl]cyclohexyl}acetic acid ((S)-isomer compound (III), optical purify: >99% ee) was suspended in a 0.5% methylcellulose solution, and orally administered repeatedly to normal hamsters (male Syrian hamsters) once a day over 14 days by using a metal probe. Four hours after the final administration, blood was collected, and plasma was obtained. Lipoproteins in the plasma were analyzed by automatic measurement using an HPLC system based on the post-labeling method according to the method described in J. Lipid. Res., 43, p805-814. Specifically, 15 μL of a plasma sample was diluted 10 times with PBS containing 1 mM EDTA, and 80 μl of the diluted sample was injected into a gel filtration column (Superose 6 column (column size: 10×300 mm), GE Healthcare Bioscience) connected to an HPLC system (liquid feeding unit: Shimadzu LC-20A System, Shimadzu). Separation was performed at a flow rate of 0.5 mL/minute and a column temperature of 40° C. by using PBS containing 1 mM EDTA as a running buffer. A cholesterol-measuring reagent (Cholesterol E-Test Wako, Wako Pure Chemical Industries) was mixed with the eluate from the column at a flow rate of 0.25 mL/minute, and the reaction was performed at 40° C. in a reaction coil (0.5 mm×15 m) with feeding the eluate. Cholesterols in the eluate obtained from the reaction coil were detected at a wavelength of 600 nm. Area ratio of the LDL fraction based on the resulting total peak area of cholesterols was calculated, and the total cholesterol amount measured beforehand by using Cholesterol E-Test Wako was multiplied by the area ratio of the LDL fraction to calculate LDL cholesterol amount.
Six normal hamsters were used for each of the control group (0.5% methylcellulose solution administration group) and the test compound administration groups (10 mg/kg body weight and 30 mg/kg body weight of (S)-isomer compound (III) administration groups). The hamsters were divided into the groups beforehand on the basis of the total plasma cholesterol value.
The symbols * and *** in Table 3 means that there were significant differences at a significance level of 5% or less (p<0.05) and a significance level of 0.1% or less (p<0.001), respectively, as determined by a multi-group comparison test (Dunnett's multiple comparison test) performed between the control group and each of the test compound administration groups. Further, the LDL cholesterol amount-reducing rate of the test compound administration group based on the control group was calculated in accordance with the following equation 1 as an LDL cholesterol-reducing rate, and indicated in terms of percentage. LDL cholesterol-reducing rate(%)=[(Average of LDL cholesterol amount of control group−Average of LDL cholesterol amount of compound administration group)/Average of LDL cholesterol amount of control group]×100 (Equation 1)

[3] = 10 mg/kg orally once a day over 14 days
[4] = 30 mg/kg orally once a day over 14 days

In the case of `CCN(C[C@H]1CC[C@H](CC(=O)O)CC1)c1ccc(C(F)(F)F)cc1CN(c1ncc(OCCS(C)(=O)=O)cn1)C(C)c1cc(C(F)(F)F)cc(C(F)(F)F)c1` (mixture of isomers) [Racemate compound (I), trans-{4-[({2-[({1-[3,5-Bis(trifluoromethyl)phenyl]ethyl}{5-[2-(methylsulfonyl)ethoxy]pyrimidin-2-yl}amino)methyl]-4-(trifluoromethyl)phenyl}(ethyl)amino)methyl]cyclohexyl}acetic acid, reference compound], the “PCSK9 protein amount (Relative value based on value of control taken as 1)” value (PCSK9 protein) is reported as 0.68, the “PCSK9 protein amount-reducing action in comparison with the control (in words)” value (“PCSK9 protein amount-reducing action” below) (PCSK9 protein) is reported as “almost no such actions” and the “LDL receptor amount (Relative value based on value of control taken as 1)” value (LDL receptor (LDLR)) is reported as 0.73. The “LDL receptor amount-increasing action in comparison with the control (in words)” value (“LDL receptor amount-increasing action” below) (LDL receptor (LDLR)) was “almost no such actions”, the “Effect on HMG-CoA reductase mRNA expression amount in comparison with the control (in words)” value [1] was “remarkably reduced” and the “HMG-CoA reductase mRNA expression amount (Relative value based on average value of control taken as 1)” value [1] was 0.37 ± 0.02.
In the case of `CCN(C[C@H]1CC[C@H](CC(=O)O)CC1)c1ccc(C(F)(F)F)cc1CN(c1ncc(OCCS(C)(=O)=O)cn1)[C@H](C)c1cc(C(F)(F)F)cc(C(F)(F)F)c1` [(R)-Isomer compound (II), (R)-trans-{4-[({2-[({1-[3,5-Bis(trifluoromethyl)phenyl]ethyl}{5-[2-(methylsulfonyl)ethoxy]pyrimidin-2-yl}amino)methyl]-4-(trifluoromethyl)phenyl}(ethyl)amino)methyl]cyclohexyl}acetic acid], the “PCSK9 protein amount (Relative value based on value of control taken as 1)” value (PCSK9 protein) is reported as 1.05, the “PCSK9 protein amount-reducing action” value (PCSK9 protein) is reported as “almost no such actions” and the “LDL receptor amount (Relative value based on value of control taken as 1)” value (LDL receptor (LDLR)) is reported as 0.93. The “LDL receptor amount-increasing action” value (LDL receptor (LDLR)) was “almost no such actions”.
In the case of `CCN(C[C@H]1CC[C@H](CC(=O)O)CC1)c1ccc(C(F)(F)F)cc1CN(c1ncc(OCCS(C)(=O)=O)cn1)[C@@H](C)c1cc(C(F)(F)F)cc(C(F)(F)F)c1` [(S)-Isomer compound (III), (S)-trans-{4-[({2-[({1-[3,5-Bis(trifluoromethyl)phenyl]ethyl}{5-[2-(methylsulfonyl)ethoxy]pyrimidin-2-yl}amino)methyl]-4-(trifluoromethyl)phenyl}(ethyl)amino)methyl]cyclohexyl}acetic acid], the “PCSK9 protein amount (Relative value based on value of control taken as 1)” value (PCSK9 protein) is reported as 0.28, the “PCSK9 protein amount-reducing action” value (PCSK9 protein) is reported as “markedly reduced” and the “LDL receptor amount (Relative value based on value of control taken as 1)” value (LDL receptor (LDLR)) is reported as 1.73. The “LDL receptor amount-increasing action” value (LDL receptor (LDLR)) was “remarkably increased”, the “Effect on expression amount of PCSK9 mRNA in comparison with the control (in words)” value (human PCSK9 mRNA) was “remarkably reduced” and the “PCSK9 mRNA expression amount (Relative value based on average value of control taken as 1)” value (human PCSK9 mRNA; average ± standard error, 3 samples) was 0.18 ± 0.13. For the same molecule, the LDL cholesterol-reducing rate [2, 3] was 20.0%, the “Average LDL cholesterol amount ± standard deviation” value [2, 3] was 40 ± 2.6* mg/dl and the LDL cholesterol-reducing rate [2, 4] was 38.0%. For the same molecule, the “Average LDL cholesterol amount ± standard deviation” value [2, 4] was 31 ± 2.6*** mg/dl and the “Blood LDL cholesterol-reducing action (in words)” value ([2]; normal hamsters, 10 and 30 mg/kg orally, 14 days) was “superior blood LDL cholesterol-reducing action”.
For `CCN(C[C@H]1CC[C@H](CC(=O)O)CC1)c1ccc(C(F)(F)F)cc1CN(c1ncc(OCCSC)cn1)C(C)c1cc(C(F)(F)F)cc(C(F)(F)F)c1` (relative stereo) [trans-{4-[({2-[({1-[3,5-Bis(trifluoromethyl)phenyl]ethyl}{5-[2-(methylthio)ethoxy]pyrimidin-2-yl}amino)methyl]-4-(trifluoromethyl)phenyl}(ethyl)amino)methyl]cyclohexyl}acetic acid], the “Effect on HMG-CoA reductase mRNA expression amount in comparison with the control (in words)” value [1] was “remarkably reduced” and the “HMG-CoA reductase mRNA expression amount (Relative value based on average value of control taken as 1)” value [1] was 0.25 ± 0.03.
